Laboratory results reported in the NIST ThermoML archive (doi:10.1016/j.jct.2015.07.046).
Numbers after ± are expanded uncertainties.

Assay: activity coefficient (dimensionless); of the first substance listed, at infinite dilution; xn = mol fraction of the nth substance listed
Conditions: 101.3 kPa, Liquid, Chromatography, x1 = 0

| Compound | activity coefficient (313.15 K) | activity coefficient (323.15 K) | activity coefficient (333.15 K) | activity coefficient (343.15 K) | activity coefficient (353.15 K) | activity coefficient (363.15 K) |
| --- | --- | --- | --- | --- | --- | --- |
| Cc1ccc(C)cc1 [1,4-dimethylbenzene] + CCn1cc[n+](C)c1.COP(=O)([O-])OC | 12.1 ± 1.3 | 11.5 ± 1.2 | 10.9 ± 1.1 | 10.5 ± 1.1 | 9.99 ± 1.1 | 9.53 ± 1 |
| C1CCCCC1 [cyclohexane] + COP(=O)([O-])OC.Cn1cc[n+](C)c1 | 58.4 ± 6.2 | 56 ± 5.9 | 52.6 ± 5.5 | 50.9 ± 5.4 | 48 ± 5.1 | 45.7 ± 4.8 |
| CCCCCCC [heptane] + CCn1cc[n+](C)c1.COP(=O)([O-])OC | 162 ± 17 | 151 ± 16 | 138 ± 15 | 124 ± 13 | 111 ± 12 | 97.7 ± 10 |
| CC(C)CC(C)(C)C [2,2,4-trimethylpentane] + CCn1cc[n+](C)c1.COP(=O)([O-])OC | 183 ± 19 | 170 ± 18 | 158 ± 17 | 143 ± 15 | 132 ± 14 | 119 ± 13 |
| C1=CCCCC1 [cyclohexene] + COP(=O)([O-])OC.Cn1cc[n+](C)c1 | 32.7 ± 3.5 | 31.6 ± 3.3 | 30.7 ± 3.2 | 30.1 ± 3.2 | 29.1 ± 3.1 | 28.3 ± 3 |
| CC1CCCCC1 [methylcyclohexane] + CCn1cc[n+](C)c1.COP(=O)([O-])OC | 77.7 ± 8.2 | 68.3 ± 7.2 | 61.5 ± 6.5 | 55.9 ± 5.9 | 50.5 ± 5.3 | 45.5 ± 4.8 |
| Cc1ccc(C)cc1 [1,4-dimethylbenzene] + COP(=O)([O-])OC.Cn1cc[n+](C)c1 | 13.8 ± 1.4 | 13.6 ± 1.4 | 13.5 ± 1.4 | 13.4 ± 1.4 | 13.2 ± 1.4 | 13.1 ± 1.4 |
| CCCCCCCC [octane] + CCn1cc[n+](C)c1.COP(=O)([O-])OC | 202 ± 21 | 187 ± 20 | 173 ± 18 | 158 ± 17 | 144 ± 15 | 132 ± 14 |
| Cc1ccccc1C [1,2-dimethylbenzene] + CCn1cc[n+](C)c1.COP(=O)([O-])OC | 10.2 ± 1.1 | 9.8 ± 1 | 9.59 ± 1 | 9.3 ± 0.98 | 9.14 ± 0.96 | 9 ± 0.95 |
| CC(C)CC(C)(C)C [2,2,4-trimethylpentane] + COP(=O)([O-])OC.Cn1cc[n+](C)c1 | 318 ± 34 | 301 ± 32 | 284 ± 30 | 270 ± 28 | 244 ± 26 | 229 ± 24 |
| CCCCCCC [heptane] + COP(=O)([O-])OC.Cn1cc[n+](C)c1 | 297 ± 31 | 279 ± 29 | 258 ± 27 | 243 ± 26 | 231 ± 24 | 216 ± 23 |
| CCCCCCCCC [nonane] + COP(=O)([O-])OC.Cn1cc[n+](C)c1 | 400 ± 42 | 384 ± 40 | 368 ± 39 | 351 ± 37 | 345 ± 36 | 327 ± 34 |
| C=Cc1ccccc1 [styrene] + CCn1cc[n+](C)c1.COP(=O)([O-])OC | 5.45 ± 0.57 | 5.29 ± 0.56 | 5.16 ± 0.54 | 5.01 ± 0.53 | 4.86 ± 0.51 | 4.71 ± 0.49 |
| CC1CCCCC1 [methylcyclohexane] + COP(=O)([O-])OC.Cn1cc[n+](C)c1 | 83.4 ± 8.8 | 80.8 ± 8.5 | 78.3 ± 8.2 | 75.4 ± 7.9 | 73 ± 7.7 | 69.9 ± 7.4 |
| CCCCCCCCC [nonane] + CCn1cc[n+](C)c1.COP(=O)([O-])OC | 272 ± 29 | 243 ± 26 | 225 ± 24 | 207 ± 22 | 197 ± 21 | 182 ± 19 |
| CCCCCCCCCC [decane] + CCn1cc[n+](C)c1.COP(=O)([O-])OC | 430 ± 45 | 388 ± 41 | 354 ± 37 | 316 ± 33 | 294 ± 31 | 245 ± 26 |
